This series can be described thus: In vivo distribution of 99mTc-labelled chelators in rats. Further details: species or system male Wistar rats. To be noted: for GI tract accumulation/localization (share of the dose) / dose remaining in the blood / accumulation in the kidney / localization in urine: male Wistar rats; for GI tract accumulation/localization (share of the dose): 99mTc-labelled chelator 200 μL (200 μCi) i.v. tail vein, organs counted after 120 min images; for dose remaining in the blood / accumulation in the kidney / localization in urine: 99mTc-labelled chelator i.v. tail vein; for dose remaining in the blood: after 120 min images, blood volume assumed 8% body weight; for accumulation in the kidney: examples 1 and 2 approximately equal. On the procedure:
Approximately 1 mg of each chelator was dissolved in 200 μL saline or 200 μL ethanol:water (1:1) in a tube. To the tube was added 100-300 μL sodium ^99m Tc-pertechnetate (5-15 mCi), 100 μL phosphate buffer (0.25M, pH 7.4), and 200 μL of a solution containing 50 μg stannous chloride dihydrate and 40 mg sodium tartrate dihydrate. The tube was capped tightly and placed in a boiling water bath for 10 minutes.
After cooling, the reaction mixture was loaded onto a C-18 solid-phase extraction cartridge (Sep-Pak) which had been activated with 5 mL methanol and 5 mL 1 mM HCl. The cartridge was washed with 5 mM HCl and the eluate was collected in a test tube. The cartridge was then dried by forcing air through it. The product was eluted with 2 mL ethanol:water (1:1) and collected in a separate tube. The cartridge was placed in another tube and the three tubes were assayed in a radionuclide dose calibrator (ionization chamber). The yield was calculated as the activity in the ethanol:water eluate divided by the total activity in the three tubes under the assumption that the desired product was relatively lipophilic. A less lipophilic chelator would elute partially in the acid wash and the apparent yield would be low.
Distribution within rats of selected chelators and a reference chelator were determined using established protocols. Briefly, male Wistar rats (Charles River, 200 g) were anaesthetized with somnitol (40 to 50 mg/kg) and 200 μL of the labelled chelator (ie. 200 μCi) was injected intravenously via the tail vein. Serial whole-body scintigrams were acquired for first 10 minutes, After further images were obtained at 60 and 120 minutes, the rat was killed with anaesthesia and samples of organs (blood, heart, lung, liver, spleen, kidney, muscle, GI tract) were weighed and counted in either a well-type gamma counter or in a gamma dose calibrator. Dose calculations were made based on the assumption that rats weighed 200 g and that the blood volume constituted 8% body weight. All results were corrected for the residual dose in the tail.

Structures can show the parent of a compound that is named as a salt.

Take `O=C(CSC(=O)c1ccccc1)NNC(=O)NNC(=O)CSC(=O)c1ccccc1` [Example 1, N,N'-bis(S-benzoylmercaptoacetyl)-carbohydrazide]: the “GI tract accumulation/localization (share of the dose)” value (“GI tract accumulation/localization” for short) is recorded as “about 9%”, the “dose remaining in the blood” value is given as “about 14%” and the “accumulation in the kidney” value is recorded as 7-14%. For the same compound, the “GI tract excretion (in words)” value (in comparison with the N2S2 reference chelator, rats, i.v.) is reported as “remarkably low”.

For `O=C(CNC(=O)CSC(=O)c1ccccc1)CNC(=O)CSC(=O)c1ccccc1` [Example 3, N,N'-bis-(S-benzoylmercaptoacetyl)-1,3-diaminoacetone], the “GI tract accumulation/localization” value amounted to 50%, the localization in urine worked out at 25% and the “dose remaining in the blood” value came to 3%. In addition, where the note is “rats, i.v.”, the “clearance from the blood (and other tissues), in words” value was “fastest clearance from the blood and other tissues”; the route of elimination result is “mainly eliminated through the liver and GI tract”.

For the compound `N=C(NNC(=O)CSC(=O)c1ccccc1)NNC(=O)CSC(=O)c1ccccc1` [Example 2, N,N'-bis-(S-benzoylmercaptoacetyl)-1,3-diaminoguanidine hydrochloride], the “GI tract accumulation/localization” value is on record as 30%, the localization in urine was determined as 20%, the “dose remaining in the blood” value was “about 10%” and the “accumulation in the kidney” value is 7-14%.

The values are drawn from US5858327A, “Hydrazino-type N2 S2 radionuclide chelating compounds” (Resolutions Pharmaceuticals, Inc., priority 1996, dated 1999).
